One block for each compound: values may come before it.
Assays:
HepG2 = test: Cytotoxicity against HepG2 cell by MTT assay; type: functional; conditions: Homo sapiens
Vero = test: Cytotoxicity against Vero cell by MTT assay; type: functional; conditions: Chlorocebus sabaeus
Duck hepatitis B virus [1] = test: Inhibition of duck HBV transfected in primary duck hepatocytes at 10 ug/mL; type: functional; conditions: Hepatocyte
Duck hepatitis B virus [2] = test: Inhibition of duck HBV transfected in primary duck hepatocytes; type: functional, organism-based; conditions: Hepatocyte
Hepatitis B virus [3] = test: Inhibition of wild type HBV transfected in human hepatoblastoma 2.2.15 cells at 10 ug/mL; type: functional; conditions: HepG2 2.2.15
Hepatitis B virus [4] = test: Inhibition of wild type HBV transfected in human hepatoblastoma 2.2.15 cells; type: functional, organism-based; conditions: HepG2 2.2.15
Hepatitis B virus [5] = test: Inhibition of HBV M204I mutant transfected in B1 cell line at 10 ug/mL; type: functional
Hepatitis B virus [6] = test: Inhibition of HBV M204I mutant transfected in B1 cell line; type: functional, organism-based
Hepatitis B virus [7] = test: Inhibition of HBV L180M/ M204V mutant transfected in D88 cell line at 10 ug/mL; type: functional
Hepatitis B virus [8] = test: Inhibition of HBV L180M/ M204V mutant transfected in D88 cell line; type: functional, organism-based
West Nile virus = test: Inhibitory activity against West Nile virus; type: functional, organism-based

Compound: O=c1[nH]c(=O)n(COCCO)cc1Cl
CC50 (HepG2): > 454 µM
CC50 (Vero): > 454 µM
inhibition at 10 µg/mL (Duck hepatitis B virus [1]): 94%
EC50 (Duck hepatitis B virus [2]): 0.4 µM
inhibition at 10 µg/mL (Hepatitis B virus [3]): 82%
EC50 (Hepatitis B virus [4]): 4.5 µM
inhibition at 10 µg/mL (Hepatitis B virus [5]): 69%
EC50 (Hepatitis B virus [6]): 4.5 µM
inhibition at 10 µg/mL (Hepatitis B virus [7]): 70%
EC50 (Hepatitis B virus [8]): 4.5 µM

Compound: O=c1[nH]c(=O)n(COCCO)cc1C(F)(F)F
CC50 (HepG2): > 393 µM
CC50 (Vero): > 393 µM
inhibition at 10 µg/mL (Duck hepatitis B virus [1]): 76%
EC50 (Duck hepatitis B virus [2]): 3.9 µM
inhibition at 10 µg/mL (Hepatitis B virus [3]): 55%
EC50 (Hepatitis B virus [4]): 19.6 µM
inhibition at 10 µg/mL (Hepatitis B virus [5]): 53%
EC50 (Hepatitis B virus [6]): 39.3 µM
inhibition at 10 µg/mL (Hepatitis B virus [7]): 50%
EC50 (Hepatitis B virus [8]): 39.3 µM

Compound: O=c1[nH]c(=O)n(COCCO)cc1I
CC50 (HepG2): > 320 µM
CC50 (Vero): > 320 µM
inhibition at 10 µg/mL (Duck hepatitis B virus [1]): 50%
EC50 (Duck hepatitis B virus [2]): 32 µM

Compound: Cc1c(I)c(=O)[nH]c(=O)n1COCCO
CC50 (HepG2): > 306 µM
CC50 (Vero): > 306 µM
inhibition at 10 µg/mL (Duck hepatitis B virus [1]): 51%
EC50 (Duck hepatitis B virus [2]): 30.6 µM
inhibition at 10 µg/mL (Hepatitis B virus [3]): 53%
EC50 (Hepatitis B virus [4]): 30.6 µM
inhibition at 10 µg/mL (Hepatitis B virus [5]): 30%
inhibition at 10 µg/mL (Hepatitis B virus [7]): 25%

Compound: O=c1[nH]c(=O)n(COCCO)cc1CO
CC50 (HepG2): > 476 µM
CC50 (Vero): > 476 µM
inhibition at 10 µg/mL (Duck hepatitis B virus [1]): 55%
EC50 (Duck hepatitis B virus [2]): 47.6 µM
inhibition at 10 µg/mL (Hepatitis B virus [3]): 50%
EC50 (Hepatitis B virus [4]): 23.8 µM
inhibition at 10 µg/mL (Hepatitis B virus [5]): 0%
inhibition at 10 µg/mL (Hepatitis B virus [7]): 30%

Compound: CCOC(=O)c1cn(COCCO)c(=S)[nH]c1=O
CC50 (HepG2): > 364 µM
CC50 (Vero): > 364 µM
inhibition at 10 µg/mL (Duck hepatitis B virus [1]): 53%
EC50 (Duck hepatitis B virus [2]): 36.4 µM
inhibition at 10 µg/mL (Hepatitis B virus [3]): 50%
EC50 (Hepatitis B virus [4]): 18.2 µM
inhibition at 10 µg/mL (Hepatitis B virus [5]): 20%
inhibition at 10 µg/mL (Hepatitis B virus [7]): 0%

Compound: O=c1ccn(COCCO)c(=S)[nH]1
CC50 (HepG2): > 495 µM
CC50 (Vero): > 495 µM
inhibition at 10 µg/mL (Duck hepatitis B virus [1]): 46%
EC50 (Duck hepatitis B virus [2]): > 49.5 µM
inhibition at 10 µg/mL (Hepatitis B virus [3]): 42%
EC50 (Hepatitis B virus [4]): > 49.5 µM
inhibition at 10 µg/mL (Hepatitis B virus [5]): 30%
inhibition at 10 µg/mL (Hepatitis B virus [7]): 0%

Compound: Cc1cc(=O)[nH]c(=O)n1COCCO
CC50 (HepG2): > 500 µM
CC50 (Vero): > 500 µM
inhibition at 10 µg/mL (Duck hepatitis B virus [1]): 60%
EC50 (Duck hepatitis B virus [2]): 25 µM
inhibition at 10 µg/mL (Hepatitis B virus [3]): 55%
EC50 (Hepatitis B virus [4]): 25 µM
inhibition at 10 µg/mL (Hepatitis B virus [5]): 30%
inhibition at 10 µg/mL (Hepatitis B virus [7]): 0%

Compound: Nc1cn(COCCO)c(=O)[nH]c1=O
CC50 (HepG2): > 497 µM
CC50 (Vero): > 497 µM
inhibition at 10 µg/mL (Duck hepatitis B virus [1]): 65%
EC50 (Duck hepatitis B virus [2]): 5 µM
inhibition at 10 µg/mL (Hepatitis B virus [3]): 50%
EC50 (Hepatitis B virus [4]): 50 µM
inhibition at 10 µg/mL (Hepatitis B virus [5]): 30%
inhibition at 10 µg/mL (Hepatitis B virus [7]): 30%

Compound: O=c1[nH]c(=O)n(COCCO)cc1Br
CC50 (HepG2): > 377 µM
CC50 (Vero): > 377 µM
inhibition at 10 µg/mL (Duck hepatitis B virus [1]): 89%
EC50 (Duck hepatitis B virus [2]): 3.7 µM
inhibition at 10 µg/mL (Hepatitis B virus [3]): 60%
EC50 (Hepatitis B virus [4]): 18.5 µM
inhibition at 10 µg/mL (Hepatitis B virus [5]): 67%
EC50 (Hepatitis B virus [6]): 18.5 µM
inhibition at 10 µg/mL (Hepatitis B virus [7]): 73%
EC50 (Hepatitis B virus [8]): 3.7 µM

Compound: O=c1[nH]c(=O)n(COCCO)cc1[N+](=O)[O-]
CC50 (HepG2): > 432 µM
CC50 (Vero): > 432 µM
EC50 (West Nile virus): > 134 µM
inhibition at 10 µg/mL (Duck hepatitis B virus [1]): 53%
EC50 (Duck hepatitis B virus [2]): 43.2 µM
inhibition at 10 µg/mL (Hepatitis B virus [3]): 54%
EC50 (Hepatitis B virus [4]): 43.2 µM
inhibition at 10 µg/mL (Hepatitis B virus [5]): 30%
inhibition at 10 µg/mL (Hepatitis B virus [7]): 0%

Compound: COC(=O)c1cc(=O)[nH]c(=O)n1COCCO
CC50 (HepG2): > 409 µM
CC50 (Vero): > 409 µM
inhibition at 10 µg/mL (Duck hepatitis B virus [1]): 56%
EC50 (Duck hepatitis B virus [2]): 40.9 µM
inhibition at 10 µg/mL (Hepatitis B virus [3]): 60%
EC50 (Hepatitis B virus [4]): 40.9 µM
inhibition at 10 µg/mL (Hepatitis B virus [5]): 0%
inhibition at 10 µg/mL (Hepatitis B virus [7]): 0%

EC50 (Hepatitis B virus [4]): > 53 µM
Compound: O=c1cnn(COCCO)c(=O)[nH]1
CC50 (HepG2): > 534 µM
CC50 (Vero): > 534 µM
inhibition at 10 µg/mL (Duck hepatitis B virus [1]): 25%
EC50 (Duck hepatitis B virus [2]): > 53 µM
inhibition at 10 µg/mL (Hepatitis B virus [3]): 25%

Compound: CCc1cn(COCCO)c(=S)[nH]c1=O
CC50 (HepG2): > 478 µM
CC50 (Vero): > 478 µM
inhibition at 10 µg/mL (Duck hepatitis B virus [1]): 45%
EC50 (Duck hepatitis B virus [2]): > 47.8 µM
inhibition at 10 µg/mL (Hepatitis B virus [3]): 40%
EC50 (Hepatitis B virus [4]): > 47.8 µM
inhibition at 10 µg/mL (Hepatitis B virus [5]): 20%
inhibition at 10 µg/mL (Hepatitis B virus [7]): 40%
EC50 (Hepatitis B virus [8]): > 47.8 µM

Compound: Cc1c([N+](=O)[O-])c(=O)[nH]c(=O)n1COCCO
CC50 (HepG2): > 408 µM
CC50 (Vero): > 408 µM
inhibition at 10 µg/mL (Duck hepatitis B virus [1]): 68%
EC50 (Duck hepatitis B virus [2]): 20.4 µM
inhibition at 10 µg/mL (Hepatitis B virus [3]): 60%
EC50 (Hepatitis B virus [4]): 20.4 µM
inhibition at 10 µg/mL (Hepatitis B virus [5]): 25%
inhibition at 10 µg/mL (Hepatitis B virus [7]): 20%

Compound: Nc1nc(NC2CC2)c2ncn([C@H]3C=C[C@@H](CO)C3)c2n1 [ABACAVIR]
inhibition at 10 µg/mL (Hepatitis B virus [5]): 80%
EC50 (Hepatitis B virus [6]): 3.4 µM
inhibition at 10 µg/mL (Hepatitis B virus [7]): 72%
EC50 (Hepatitis B virus [8]): 3.4 µM

Compound: Nc1ccn([C@@H]2CS[C@H](CO)O2)c(=O)n1 [LAMIVUDINE]
inhibition at 10 µg/mL (Duck hepatitis B virus [1]): 96%
EC50 (Duck hepatitis B virus [2]): 0.04 µM
inhibition at 10 µg/mL (Hepatitis B virus [3]): 88%
EC50 (Hepatitis B virus [4]): 2.1 µM
inhibition at 10 µg/mL (Hepatitis B virus [5]): 45%
EC50 (Hepatitis B virus [6]): > 44 µM
inhibition at 10 µg/mL (Hepatitis B virus [7]): 30%

— ChEMBL document CHEMBL1139011, “Inhibition of hepatitis B virus (HBV) replication by pyrimidines bearing an acyclic moiety: effect on wild-type and mutant HBV” (J Med Chem, 2006)
